Molecules are shown by their SMILES. Some results are limits rather than exact numbers.

The text below walks through data of ChEMBL document CHEMBL4184270, “Diastereoselective synthesis of fused cyclopropyl-3-amino-2,4-oxazine β-amyloid cleaving enzyme (BACE) inhibitors and their biological evaluation” (Bioorg Med Chem Lett, 2018).

The nature of data set [1]: Apparent permeability in pig LLC-PK1 cells. In kind it is ADME, cell-based, Sus scrofa.
Data set [2] in a line: Apparent intrinsic clearance in human liver microsomes at 1 uM. It counts as ADME, microsome. The following applies: read-out: CLH(app).
The nature of data set [3]: Dissociation constant, pKa of the compound by UV spectrophotometric method. It counts as physicochemical.
The nature of data set [4]: Apparent intrinsic clearance in rat liver microsomes at 1 uM. In kind it is ADME, microsome. The following applies: read-out: CLH(app). On the technique in general: Liver microsomes are vesicles of endoplasmic reticulum, rich in cytochrome P450 enzymes.
Data set [5] is described as follows: Unbound plasma concentration in Crl:CD(SD) rat at 10 mg/kg, po administered as single dose via gavage measured after 4 hrs. In kind it is ADME, organism-based. The following applies: in vivo.
The nature of data set [6]: Plasma concentration in Crl:CD(SD) rat at 10 mg/kg, po administered as single dose via gavage measured after 4 hrs. In kind it is ADME, organism-based.
The nature of data set [7]: Drug level in Crl:CD(SD) rat brain at 10 mg/kg, po administered as single dose via gavage measured after 4 hrs. In kind it is ADME, organism-based. The following applies: read-out: Drug uptake.
Data set [8] can be described thus: Drug level in Crl:CD(SD) rat CSF at 10 mg/kg, po administered as single dose via gavage measured after 4 hrs. In kind it is ADME, organism-based, Cerebrospinal fluid. The following applies: read-out: Drug uptake.

Broadly, the Papp is a coefficient for how fast a substance crosses the barrier. The term pKa denotes the negative logarithm of the acid dissociation constant. For the compound `COc1cnc(C(=O)Nc2ccc(F)c([C@]3(C)CCOC(N)=N3)c2)cn1`, in data set [1], the Papp was 3.4 ×10⁻⁶ cm/s. The microsomal CLint at 1 µM was less than 14 µL/min/mg in data set [2] and 52 µL/min/mg in data set [4]. Moreover, the pKa in data set [3] was determined as 9.8.
Turning to `COc1cnc(C(=O)Nc2ccc(F)c([C@@]3(C)N=C(N)O[C@@H]4C[C@@H]43)c2)cn1`, the Papp in data set [1] is 1.8 ×10⁻⁶ cm/s. The microsomal CLint at 1 µM in data set [2] is 105 µL/min/mg; in data set [4], 30 µL/min/mg. Besides, the “Cp(f)” value in data set [5] was 920 nM. Besides, the concentration at 4 h in data set [6] was determined as 2300 nM; in data set [7], 1100 nM; in data set [8], 210 nM. Besides, the pKa in data set [3] stood at 9.3.
`COc1cnc(C(=O)Nc2ccc(F)c([C@@]3(C)N=C(N)O[C@H]4C[C@H]43)c2)cn1`: the Papp in data set [1] amounted to 2.5 ×10⁻⁶ cm/s. Also, the microsomal CLint at 1 µM in data set [2] was determined as 162 µL/min/mg. Also, in data set [3], the pKa is 8.8.
